Measured values reported in the NIST ThermoML archive (doi:10.1016/j.jct.2010.08.019).

Assay: xn = mol fraction of the nth substance listed
Settings: for surface tension liquid-gas: Wilhelmy-plate method; for viscosity / mass density: 101 kPa, Liquid; for viscosity: Falling or rolling sphere viscometry; for mass density: Vibrating tube method

CC(C)CC(C)(C)C [2,2,4-trimethylpentane] + CC(C)O
Settings | mass density [kg/m3] | surface tension liquid-gas [mN/m] | viscosity [mPa·s]
313.15 K, x2 = 0 | 675.23 | 16.9 | 0.404
313.15 K, x2 = 0.0499 | 676.34 | – | 0.398
313.15 K, x2 = 0.1001 | 677.92 | 16.9 | 0.401
313.15 K, x2 = 0.1503 | 679.86 | – | 0.405
313.15 K, x2 = 0.2001 | 682.09 | 16.9 | 0.412
313.15 K, x2 = 0.2499 | 684.47 | – | 0.42
313.15 K, x2 = 0.3003 | 687.15 | 17 | 0.43
313.15 K, x2 = 0.3497 | 689.97 | – | 0.449
313.15 K, x2 = 0.4 | 693.18 | 17.1 | 0.458
313.15 K, x2 = 0.4502 | 696.67 | – | 0.476
313.15 K, x2 = 0.5005 | 700.49 | 17.2 | 0.5
313.15 K, x2 = 0.5499 | 704.67 | – | 0.529
313.15 K, x2 = 0.6 | 709.23 | 17.5 | 0.569
313.15 K, x2 = 0.6498 | 714.27 | – | 0.61
313.15 K, x2 = 0.6999 | 719.71 | 17.8 | 0.657
313.15 K, x2 = 0.75 | 725.83 | – | 0.719
313.15 K, x2 = 0.7998 | 732.49 | 18.2 | 0.782
313.15 K, x2 = 0.8498 | 739.89 | – | 0.87
313.15 K, x2 = 0.8999 | 748.21 | 18.8 | 0.987
313.15 K, x2 = 0.9499 | 757.39 | – | 1.129
323.15 K, x2 = 0 | 666.8 | 16.2 | 0.365
323.15 K, x2 = 0.0501 | 667.65 | – | 0.359
323.15 K, x2 = 0.1 | 669.08 | 16.2 | 0.36
323.15 K, x2 = 0.15 | 670.98 | – | 0.366
323.15 K, x2 = 0.1998 | 673.08 | 16.2 | 0.37
323.15 K, x2 = 0.25 | 675.42 | – | 0.375
323.15 K, x2 = 0.3 | 677.99 | 16.2 | 0.383
323.15 K, x2 = 0.35 | 680.86 | – | 0.392
323.15 K, x2 = 0.4 | 683.93 | 16.3 | 0.403
323.15 K, x2 = 0.4499 | 687.34 | – | 0.417
323.15 K, x2 = 0.5 | 691.07 | 16.4 | 0.433
323.15 K, x2 = 0.5501 | 695.17 | – | 0.456
323.15 K, x2 = 0.6 | 699.74 | 16.7 | 0.479
323.15 K, x2 = 0.65 | 704.78 | – | 0.508
323.15 K, x2 = 0.7 | 710.22 | 17 | 0.544
323.15 K, x2 = 0.7499 | 716.22 | – | 0.588
323.15 K, x2 = 0.7999 | 722.88 | 17.4 | 0.632
323.15 K, x2 = 0.85 | 730.48 | – | 0.696
323.15 K, x2 = 0.9 | 738.82 | 18 | 0.776
323.15 K, x2 = 0.95 | 748.16 | – | 0.875
